Where two headings read alike, the source gives them in different places.
Assays:
[1] = Blocking experiments: inhibition of radiotracer accumulation in the rat by coadministered compound; format: in vivo, rat (male Wistar); details: rat, iv, rat, iv, 60 min
Description: (§1) *Animals in group 1 received an iv injection of (+)4-[^125 l]HIPP
(§2) only. For groups 2, 3, and 4, the radiotracer was coadministered with the
(§3) hydrochlorides of (+)7 (0.53 mg/kg), (-)7 (0.53 mg/kg) and vesamicol (0.3
(§4) Four groups of male Wistar rats (n=3) were used in these experiments. All animals received an iv dose of 8-10 μCi of the radiotracer in 0.1 ml of 50% aq. ethanol. Additionally, in groups 2, 3 and 4, the radiotracer was coadministered with (+)-HBrPP.HCl(1.3 μmol/kg), (-)-HBrPP.HCl(1.3 μmol/kg) and (dl)-vesamicol hydrochloride (1.1 μmol/kg), respectively. At 60 min. post-injection, blood was collected by cardiac puncture and the animals sacrificed as described above. The data was analyzed as outlined above.
(§5) NOTE: The dose of radiotracer injected was 5-7 mCi. Group I was the
(§6) control, injected with the radiotracer only. Group II included the
(§7) simultaneous injection of "cold"(dl)3-HIPP (HCl) (0.53 mg/kg). Group III
(§8) included the simultaneous injection of (dl) vesamicol (HCl) (0.31 mg/kg).
(§9) All rats were sacrificed at one hour postinjection.
(§10) NOTE: Group I was the control, injected with the radiotracer only. Group
(§11) II included the simultaneous injection of "cold"(dl)3-HIPP (HCl) (0.53
(§12) mg/kg). Group III included the simultaneous injection of (dl) vesamicol
(§13) hydrochloride (0.31 mg/kg). The dose of radiotracer was 8-9 μCi. All
(§14) rats were sacrificed at one hour postinjection.
(§15) NOTE: Group I received (+)[^125 l]13 only. Group II received the (+)
(§16) radiotracer coinjected with 0.31 mg/kg (dl)vesamicol hydrochloride. Group
(§17) III received (-)[^125 l]13 only. Group IV received the (-) radiotrace
(§18) coinjected with 0.31 mg/kg (dl)vesamicol hydrochloride. All animals were
(§19) sacrificed at one hour postinjection. The dose of radiotracer injected pe

[2] = Tissue distribution (biodistribution) of radioiodinated compound in the rat; details: rat; for Brain: Blood Ratio / Heart: Blood Ratio / radioactivity in blood / radioactivity in brain / radioactivity in heart / radioactivity in kidney / radioactivity in liver / radioactivity in lung / radioactivity in muscle / radioactivity in spleen: iv
Description: Four groups of male Wistar rats (with four animals per group) weighing 200-350 g were used in these experiments. Each animal received, while under ether anesthesia, an intravenous injection of the radiotracer (10-20 μCi) dissolved in 0.1 ml of 50% aqueous ethanol. At 5, 30, and 60 and 180 min. post-injection, blood was collected from the anesthetized animals by cardiac puncture, and the animal was immediately sacrificed by cardiectomy. The organs and tissues of interest were harvested, transferred to preweighed tubes and counted in a Beckman gamma counter. The tubes were subsequently reweighed to give the weight of the corresponding tissues. Preweighed tubes containing ^1 -ml samples of a 1:100 dilution of the injection dose were also counted and used as reference for calculating the tissue accumulation of radioactivity. The accumulation of radiotracer was expressed as a percentage of injected dose per gram of tissue.

vesamicol receptor = assay: Blocking experiments: inhibition of radiotracer accumulation in the rat by coadministered compound; format: in vivo, rat (male Wistar); details: rat, iv, 60 min
Description: as §1, §2, §3, §4, §5, §6, §7, §8, §9, §10, §11, §12, §13, §14, §15, §16, §17, §18, §19

[3] = + (dl)-vesamicol HCl 0.3 (Table 3) or 0.31 mg/kg

Compound: OC(Cc1ccc([125I])cc1)CN1CCC(c2ccccc2)CC1 (single isomer, unassigned; (-)) [(-)-4-[^125 l]HIPP, 2-Hydroxy-3-(4-iodophenyl)-1-(4-phenylpiperidyl)propane]
- tissue uptake at 1 h ([1]; blood, + (+)-7 HCl 0.53 mg/kg, read-out: radioactivity in blood): 0.05 %ID/g
- tissue uptake at 1 h ([1]; blood, + (-)-7 HCl 0.53 mg/kg, read-out: radioactivity in blood): 0.04 %ID/g
- tissue uptake at 1 h ([1]; blood, + (dl)-vesamicol HCl 0.3 (Table 3) or 0.31 mg/kg, read-out: radioactivity in blood): 0.02 %ID/g
- tissue uptake at 1 h ([1]; blood, radiotracer only (control), read-out: radioactivity in blood): 0.02 %ID/g
- tissue uptake at 1 h ([1]; brain, + (+)-7 HCl 0.53 mg/kg, read-out: radioactivity in brain): 0.28 %ID/g
- tissue uptake at 1 h ([1]; brain, + (-)-7 HCl 0.53 mg/kg, read-out: radioactivity in brain): 0.29 %ID/g
- tissue uptake at 1 h ([1]; brain, + (dl)-vesamicol HCl 0.3 (Table 3) or 0.31 mg/kg, read-out: radioactivity in brain): 0.31 %ID/g
- tissue uptake at 1 h ([1]; brain, radiotracer only (control), read-out: radioactivity in brain): 0.93 %ID/g
- tissue uptake at 1 h ([1]; heart, + (+)-7 HCl 0.53 mg/kg, read-out: radioactivity in heart): 0.12 %ID/g
- tissue uptake at 1 h ([1]; heart, + (-)-7 HCl 0.53 mg/kg, read-out: radioactivity in heart): 0.13 %ID/g
- tissue uptake at 1 h ([1]; heart, + (dl)-vesamicol HCl 0.3 (Table 3) or 0.31 mg/kg, read-out: radioactivity in heart): 0.13 %ID/g
- tissue uptake at 1 h ([1]; heart, radiotracer only (control), read-out: radioactivity in heart): 0.79 %ID/g
- tissue uptake at 1 h ([1]; kidney, + (+)-7 HCl 0.53 mg/kg, read-out: radioactivity in kidney): 0.46 %ID/g
- tissue uptake at 1 h ([1]; kidney, + (-)-7 HCl 0.53 mg/kg, read-out: radioactivity in kidney): 0.42 %ID/g
- tissue uptake at 1 h ([1]; kidney, + (dl)-vesamicol HCl 0.3 (Table 3) or 0.31 mg/kg, read-out: radioactivity in kidney): 0.35 %ID/g
- tissue uptake at 1 h ([1]; kidney, radiotracer only (control), read-out: radioactivity in kidney): 1.9 %ID/g
- tissue uptake at 1 h ([1]; liver, + (dl)-vesamicol HCl 0.3 (Table 3) or 0.31 mg/kg, read-out: radioactivity in liver): 4.18 %ID/g
- tissue uptake at 1 h ([1]; liver, radiotracer only (control), read-out: radioactivity in liver): 2.68 %ID/g
- tissue uptake at 1 h ([1]; lung, + (+)-7 HCl 0.53 mg/kg, read-out: radioactivity in lung): 1.64 %ID/g
- tissue uptake at 1 h ([1]; lung, + (-)-7 HCl 0.53 mg/kg, read-out: radioactivity in lung): 1.04 %ID/g
- tissue uptake at 1 h ([1]; lung, + (dl)-vesamicol HCl 0.3 (Table 3) or 0.31 mg/kg, read-out: radioactivity in lung): 0.95 %ID/g
- tissue uptake at 1 h ([1]; lung, radiotracer only (control), read-out: radioactivity in lung): 3.63 %ID/g
- tissue uptake at 1 h ([1]; muscle, + (+)-7 HCl 0.53 mg/kg, read-out: radioactivity in muscle): 0.07 %ID/g
- tissue uptake at 1 h ([1]; muscle, + (-)-7 HCl 0.53 mg/kg, read-out: radioactivity in muscle): 0.08 %ID/g
- tissue uptake at 1 h ([1]; muscle, + (dl)-vesamicol HCl 0.3 (Table 3) or 0.31 mg/kg, read-out: radioactivity in muscle): 0.06 %ID/g
- tissue uptake at 1 h ([1]; muscle, radiotracer only (control), read-out: radioactivity in muscle): 0.21 %ID/g
- tissue uptake at 1 h ([1]; spleen, + (+)-7 HCl 0.53 mg/kg, read-out: radioactivity in spleen): 0.57 %ID/g
- tissue uptake at 1 h ([1]; spleen, + (-)-7 HCl 0.53 mg/kg, read-out: radioactivity in spleen): 0.57 %ID/g
- tissue uptake at 1 h ([1]; spleen, + (dl)-vesamicol HCl 0.3 (Table 3) or 0.31 mg/kg, read-out: radioactivity in spleen): 0.6 %ID/g
- tissue uptake at 1 h ([1]; spleen, radiotracer only (control), read-out: radioactivity in spleen): 1.42 %ID/g

Compound: OC(CN1CCC(c2ccccc2)CC1)c1ccc([125I])cc1 (single isomer, unassigned; (-)) [(-)-[^125 l]13] [1-(4-Iodophenyl)-2-(4-phenylpiperidinyl)ethanol]
- decrease of concentration in the brain ([2]; 3 hours post-injection vs initial, listed as (-)-[^125 I]13): 85%
- initial accumulation in the rat brain ([2]; initial, listed as (-)-[^125 I]13): 1.69 % of the injected dose
- Brain: Blood Ratio ([2]; 5 min): 8.7
- Heart: Blood Ratio ([2]; 5 min): 6.2
- radioactivity in blood ([2]; 5 min): 0.13 % dose/g
- radioactivity in brain ([2]; 5 min): 1.08 % dose/g
- radioactivity in heart ([2]; 5 min): 0.77 % dose/g
- radioactivity in kidney ([2]; 5 min): 3.38 % dose/g
- radioactivity in liver ([2]; 5 min): 1.72 % dose/g
- radioactivity in lung ([2]; 5 min): 5.05 % dose/g
- radioactivity in muscle ([2]; 5 min): 0.32 % dose/g
- radioactivity in spleen ([2]; 5 min): 0.70 % dose/g
- Brain: Blood Ratio ([2]; 60 min): 11.1
- Heart: Blood Ratio ([2]; 60 min): 2.0
- radioactivity in blood ([2]; 60 min): 0.06 % dose/g
- radioactivity in brain ([2]; 60 min): .70 % dose/g
- radioactivity in heart ([2]; 60 min): 0.13 % dose/g
- radioactivity in kidney ([2]; 60 min): 1.47 % dose/g
- radioactivity in liver ([2]; 60 min): 1.90 % dose/g
- radioactivity in lung ([2]; 60 min): 0.54 % dose/g
- radioactivity in muscle ([2]; 60 min): 0.11 % dose/g
- radioactivity in spleen ([2]; 60 min): 0.57 % dose/g
- Brain: Blood Ratio ([2]; 180 min): 5.5
- Heart: Blood Ratio ([2]; 180 min): 0.9
- radioactivity in blood ([2]; 180 min): 0.06 % dose/g
- radioactivity in brain ([2]; 180 min): 0.35 % dose/g
- radioactivity in heart ([2]; 180 min): 0.05 % dose/g
- radioactivity in kidney ([2]; 180 min): 0.74 % dose/g
- radioactivity in liver ([2]; 180 min): 0.98 % dose/g
- radioactivity in lung ([2]; 180 min): 0.24 % dose/g
- radioactivity in muscle ([2]; 180 min): 0.05 % dose/g
- radioactivity in spleen ([2]; 180 min): 0.23 % dose/g
- radioactivity in heart (vesamicol receptor; [3]): 0.08 % dose/g of tissue
- Brain: Blood Ratio (vesamicol receptor; [3]): 1.61
- Heart: Blood Ratio (vesamicol receptor; [3]): 0.99
- radioactivity in blood (vesamicol receptor; [3]): 0.08 % dose/g of tissue
- radioactivity in brain (vesamicol receptor; [3]): 0.13 % dose/g of tissue
- radioactivity in kidney (vesamicol receptor; [3]): 0.38 % dose/g of tissue
- radioactivity in liver (vesamicol receptor; [3]): 1.44 % dose/g of tissue
- radioactivity in lung (vesamicol receptor; [3]): 0.34 % dose/g of tissue
- radioactivity in muscle (vesamicol receptor; [3]): 0.07 % dose/g of tissue
- radioactivity in spleen (vesamicol receptor; [3]): 0.27 % dose/g of tissue
- Brain: Blood Ratio (vesamicol receptor; radiotracer only (control)): 7.41
- Heart: Blood Ratio (vesamicol receptor; radiotracer only (control)): 1.31
- radioactivity in blood (vesamicol receptor; radiotracer only (control)): 0.10 % dose/g of tissue
- radioactivity in brain (vesamicol receptor; radiotracer only (control)): 0.73 % dose/g of tissue
- radioactivity in heart (vesamicol receptor; radiotracer only (control)): 0.13 % dose/g of tissue
- radioactivity in kidney (vesamicol receptor; radiotracer only (control)): 1.26 % dose/g of tissue
- radioactivity in liver (vesamicol receptor; radiotracer only (control)): 1.66 % dose/g of tissue
- radioactivity in lung (vesamicol receptor; radiotracer only (control)): 0.66 % dose/g of tissue
- radioactivity in muscle (vesamicol receptor; radiotracer only (control)): 0.11 % dose/g of tissue
- radioactivity in spleen (vesamicol receptor; radiotracer only (control)): 0.61 % dose/g of tissue

Source: patent publication US5358712A, “Radiopharmaceutical agents for the detection of Alzheimer's disease” (Regents of the University of Minnesota, priority 1993, dated 1994)
